38 compounds from ChEMBL document CHEMBL1137997, “Synthesis and activity of 1-aryl-1'-imidazolyl methyl ethers as non-thiol farnesyltransferase inhibitors” (Bioorg Med Chem Lett, 2004) can be followed below.

Where only a bound is given, the exact number is not on record here.

Assay [1] has as its target Geranylgeranyl transferase type I (Bos taurus, UniProt P29702+Q5EAD5). Description: Inhibition of bovine Geranylgeranyltransferase. The class given is protein-complex assay.
The target of assay [2] is T1, Protein farnesyltransferase (Mus musculus) (UniProt Q61239+Q8K2I1). Briefly: Percent inhibition of H-Ras transformed NIH-3T3-cell proliferation at 100 nM. The class given is functional, cell-based. Particulars: NIH3T3.
The target in assay [3] is Protein farnesyltransferase (Bos taurus, UniProt P29702+P49355). Briefly: Inhibition of bovine farnesyltransferase. In kind it is protein-complex assay.
For assay [4], the target named is T1, Protein farnesyltransferase (Mus musculus). Briefly: (§1) Inhibition of H-Ras transformed NIH-3T3-cell proliferation. In kind it is functional. The settings on record: concentration not given here.
Assay [5] has as its target Protein farnesyltransferase (Mus musculus, UniProt Q61239+Q8K2I1). The assay is described as §1. The class given is functional, cell-based. The settings on record: nih3t3.

As to `CCOc1ccc(-c2cc(C#N)ccc2COCc2cncn2Cc2ccc(C#N)cc2)cc1`, the IC50 is 2300 nM in assay [1] and 1.2 nM in assay [3]. This compound also yielded an inhibition in assay [2] of 52%.

In the case of `N#Cc1ccc(COCc2cncn2Cc2ccc(C#N)cc2-c2cccc3ccccc23)c(-c2ccc3c(c2)OCO3)c1`, the IC50 amounted to 1400 nM in assay [1] and 6.8 nM in assay [3]. This compound also displayed an inhibition in assay [2] of 0%.

Turning to `N#Cc1ccc(Cn2cncc2COCc2ccc(Cl)cc2-c2cccc(Cl)c2)cc1`, the IC50 in assay [1] was 8200 nM; in assay [3], 0.62 nM. In assay [4], this compound showed an inhibition of 30%.

`COc1cccc(-c2cc(C#N)ccc2COCc2cncn2Cc2ccc(C#N)nc2)c1`: the results for the half-inhibitory concentration (IC50) in assay [1] and in assay [3] were over 10000 nM and 1.5 nM, respectively. Also, the inhibition in assay [2] stood at 35%.

`CC(C)(C)c1ccc(-c2cc(C#N)ccc2COCc2cncn2Cc2ccc(C#N)cc2)cc1`: the IC50 in assay [1] was found to be 870 nM; in assay [3], 0.44 nM. The inhibition in assay [2] was found to be 49%.

Take `N#Cc1ccc(Cn2cncc2COCc2ccc(C#N)cc2-c2cccc(OC(F)(F)F)c2)cc1`: the half-maximal inhibitory concentration (IC50) in assay [1] was determined as 990 nM; in assay [3] it was 0.49 nM. The compound further gave an inhibition in assay [2] of 54%.

As to `N#Cc1ccc(COCc2cncn2Cc2ccc(C#N)nc2)c(-c2ccc3c(c2)OCO3)c1`, the IC50 was over 10000 nM in assay [1] and 3 nM in assay [3].

As for `N#Cc1ccc(Cn2cncc2COCc2ccc(C#N)c(-c3cccc4ccccc34)c2)cc1`, the half-inhibitory concentration (IC50) in assay [1] came out at 1300 nM; in assay [3], 4.8 nM. The compound also gave an inhibition in assay [2] of 5%.

With `N#Cc1ccc(OCc2cncn2Cc2ccc(C#N)c(-c3cccc4ccccc34)c2)nc1`, the IC50 came out at 420 nM in assay [1] and 0.9 nM in assay [3].

With `N#Cc1ccc(COCc2cncn2Cc2ccc(C#N)nc2)c(-c2cccc(Cl)c2)c1`, the IC50 in assay [1] was over 10000 nM; in assay [3] it was 3 nM. The compound further came in with an inhibition in assay [2] of 43%.

Turning to `Cc1ccc(-c2cc(C#N)ccc2COCc2cncn2Cc2ccc(C#N)cc2)cc1C`, the concentration for half-maximal inhibition (IC50) in assay [1] was over 10000 nM; in assay [3] it was 0.6 nM. The inhibition in assay [2] was 53%.

On to `N#Cc1ccc(Cn2cncc2COCc2cnc(C#N)cc2-c2cccc(Cl)c2)cc1`, for which the IC50 in assay [1] was 810 nM; in assay [3] it was 4.3 nM. Besides, the inhibition in assay [2] is 26%.

On to `N#Cc1ccc(Cn2cncc2COCc2ccc(C#N)cc2-c2ccc3ccccc3c2)cc1`, for which the half-inhibitory concentration (IC50) in assay [1] is 3400 nM; in assay [3], 0.92 nM. In assay [2], this compound registered an inhibition of 53%.

Consider `N#Cc1ccc(Cn2cncc2COCc2ccc(C#N)cc2-c2cccc3ccccc23)cc1`, for which the figures for the IC50 in assay [1] and in assay [3] were 2300 nM and 1.3 nM, respectively. Further, in assay [2], the inhibition was found to be 43%.

`CCOc1cccc(-c2cc(C#N)ccc2COCc2cncn2Cc2ccc(C#N)nc2)c1`: the IC50 was over 10000 nM in assay [1] and 0.58 nM in assay [3].

In the case of `N#Cc1ccc(Cn2cncc2CNCc2ccc(C#N)c(-c3cccc4ccccc34)c2)cc1`, the half-maximal inhibitory concentration (IC50) in assay [1] came out at 220 nM; in assay [3], 0.65 nM. In assay [2], this compound came in with an inhibition of 5%.

In the case of `N#Cc1ccc(COCc2cncn2Cc2ccc(C#N)cc2-c2cccc(Cl)c2)c(-c2cccc(Cl)c2)c1`, the half-inhibitory concentration (IC50) came to 87 nM in assay [1] and 10 nM in assay [3]. In addition, the inhibition in assay [2] was 0%.

Consider `N#Cc1ccc(Cn2cncc2COCc2ccc(C#N)cc2-c2ccc(Cl)c(Cl)c2)cc1`, for which the IC50 was found to be 730 nM in assay [1] and 0.37 nM in assay [3]. Besides, the inhibition in assay [2] was found to be 10%.

On to `N#Cc1ccc(Cn2cncc2COCc2ccc(C#N)cc2-c2cccc(Cl)c2)nc1`, for which the half-inhibitory concentration (IC50) in assay [1] is 2200 nM; in assay [3], 1.7 nM.

As to `N#Cc1ccc(Cn2cncc2COCc2ccc(C#N)cc2-c2ccc(C(F)(F)F)cc2)cc1`, the 50% inhibitory concentration (IC50) stood at 8600 nM in assay [1] and 4.3 nM in assay [3].

As to `N#Cc1ccc(Cn2cncc2COc2ccc(C#N)c(-c3cccc4ccccc34)c2)cc1`, the IC50 in assay [1] amounted to 240 nM; in assay [3] it was 0.38 nM.

`N#Cc1ccc(Cn2cncc2COCc2ccc(C#N)cc2-c2cccc3c2OCO3)cc1` returned an inhibition in assay [2] of 54%. The same compound returned a half-maximal inhibitory concentration (IC50) in assay [3] of 0.81 nM.

For `N#Cc1ccc(COCc2cncn2Cc2ccc(Cl)cc2)c(-c2ccc3c(c2)OCO3)c1`, the half-inhibitory concentration (IC50) is over 10000 nM in assay [1] and 8.3 nM in assay [3]. The compound further had an inhibition in assay [2] of 11%.

With `CCOc1cccc(-c2cc(C#N)ccc2COCc2cncn2Cc2ccc(Cl)cc2)c1`, the IC50 in assay [1] was over 10000 nM; in assay [3], 1.4 nM.

As to `N#Cc1ccc(OCc2cncn2Cc2ccc(C#N)c(-c3cccc4ccccc34)c2)cc1`, the IC50 in assay [1] stood at 565 nM; in assay [3], 0.32 nM. The compound also showed an inhibition in assay [2] of 49%.

Consider `COc1cccc(-c2cc(C#N)ccc2COCc2cncn2Cc2ccc(C#N)cn2)c1`, for which the values for the IC50 in assay [1] and in assay [3] were over 10000 nM and 4.4 nM, respectively. Besides, in assay [2], the inhibition amounted to 49%.

`N#Cc1ccc(Cn2cncc2COCc2ccc(C#N)cc2-c2cccc(Cl)c2)cc1`: the IC50 in assay [1] was determined as 6800 nM; in assay [3], 0.37 nM. In assay [5], a half-maximal effect (EC50) was put at 7.7 nM.

In assay [2], `CC(=O)Nc1cccc(-c2cc(C#N)ccc2COCc2cncn2Cc2ccc(C#N)cc2)c1` registered an inhibition of 92%. The IC50 in assay [3] was determined as 13 nM.

On to `N#Cc1ccc(COCc2cncn2Cc2ccc(C#N)cc2-c2cccc3ccccc23)cc1`, for which the half-maximal inhibitory concentration (IC50) in assay [1] stood at 2100 nM; in assay [3] it was 0.96 nM.

For the compound `N#Cc1ccc(Cn2cncc2COCc2ccc(C#N)cc2-c2ccc(OC(F)(F)F)cc2)cc1`, the IC50 in assay [1] came to 1300 nM; in assay [3] it was 0.65 nM. Further, in assay [5], the midpoint of the response, the EC50, lay at 52 nM.

As to `CC(=O)c1ccc(-c2cc(C#N)ccc2COCc2cncn2Cc2ccc(C#N)cc2)cc1`, the IC50 in assay [1] is over 10000 nM; in assay [3] it was 1.3 nM.

`COc1ccc(-c2cc(C#N)ccc2COCc2cncn2Cc2ccc(C#N)cc2)cn1`: the 50% inhibitory concentration (IC50) was over 10000 nM in assay [1] and 7.6 nM in assay [3]. In assay [2], the inhibition was 25%.

Turning to `Cn1cncc1[C@@](N)(c1ccc(Cl)cc1)c1ccc2c(c1)c(-c1cccc(Cl)c1)cc(=O)n2C` [TIPIFARNIB], half-maximal inhibition in assay [1] (IC50) required 1100 nM.

Turning to `COc1cccc(-c2cc(C#N)ccc2COCc2cncn2Cc2ccc(Cl)cc2)c1`, the IC50 in assay [1] is over 10000 nM; in assay [3] it was 2.2 nM. Further, in assay [2], the inhibition is 0%.

The compound `CS(=O)(=O)c1ccc(Cn2cncc2COCc2ccc(C#N)cc2-c2cccc(Cl)c2)cc1` had an IC50 in assay [3] of 96 nM.

`N#Cc1ccc(Cn2cncc2COc2ccc(Cl)cc2-c2cccc(Cl)c2)cc1`: the IC50 in assay [1] came out at 1800 nM; in assay [3] it was 4 nM. The same compound gave an inhibition in assay [2] of 0%.

In assay [3], `CC1=C(Br)C=C(C#N)C(=O)C1Cn1cncc1COCc1ccc(C#N)cc1-c1ccc2c(c1)OCO2` (stereo unspecified) returned an IC50 of over 1000 nM.

For `N#Cc1ccc(Cn2cncc2COCc2ccc(C#N)cc2-c2ccc3c(c2)OCO3)nc1`, the half-inhibitory concentration (IC50) was 5500 nM in assay [1] and 4.7 nM in assay [3].
